From patent US11186873B2, “Combination method for treating cancer by targeting immunoglobulin superfamily member 1 (IGSF1) and mesenchymal-epithelial transition factor (MET)” (WELLMARKER BIO CO., LTD., priority 2014, dated 2021)

What was measured:
[1] = system: human gastric cancer cell lines SNU638 and MKN45; assay: Invasion chamber assay after siRNA, gastric cancer cells; type: cell-based; conditions: siRNA method
Protocol: (§1) HGF-independent human gastric cancer cell lines MKN45 and SNU638 and lung cancer cell line HCC827 were transfected with IGSF1 siRNA or MET siRNA for 48 hours. Plate inserts (BD Biosciences) of […] pore size were placed in a 24-well plate, and each 100 μl of matrigel (BD Biosciences) was seeded on each at a concentration of 200 μg/ml and incubated in a CO2 incubator for 30 minutes. 2.5×10^4 cells transfected with MET or IGSF1 siRNA were placed in the insert plate in a total volume of 100 μl in serum-free media. 400 μl of growth media (RPMI1640+10% FBS) were seeded on the bottom plate and cultured in a CO2 incubator for 24 hours. After 24 hours, the insert plate was washed with PBS, and the remaining cells were wiped with a cotton swab and fixed in 10% formalin for 20 minutes. After washing with purified water, the cells were stained with 0.01% crystal violet solution for 20 minutes and washed with warm water, and then the number of migrated cells was counted. […] The number of cells migrated through the insert plate in the control and the gastric cancer and lung cancer cell lines transfected with MET or IGSF1 siRNA was counted and verified.
(§2) The present inventors inhibited the expression of IGSF1 by the siRNA method in human gastric cancer cell lines SNU638 and MKN45 and then analyzed the degree of the inhibition of invasion and migration by invasion chamber assay and wound healing assay.

[2] = system: human gastric cancer cell lines SNU638 and MKN45; assay: Wound healing / migration assay after siRNA, gastric cancer cells; type: cell-based; conditions: siRNA method
Protocol: as §1, §2

[3] = system: gastric cancer cell lines SNU638 and MKN45; assay: Apoptosis by MET inhibitor, trypan blue exclusion, gastric cancer cells; type: cell-based, human
cleaved caspase 3 = assay: Expression of cleaved caspase 3 after MET inhibitor treatment; type: cell-based, human; conditions: treatment at each concentration; SNU638 and MKN45
pMET = pMET expression after miRNA/antagomir transfection, lung cancer cells; type: cell-based, human; conditions: lung cancer cell lines HCC827 and H1944
MET [4] = assay: MET expression after miR-34a/miR-34c or antagomir transfection, gastric cancer cells; type: cell-based, human; conditions: for expression of c-MET: MKN45 and SNU638, lower panel of FIG. 6B; for expression of MET: cell line SNU638, real-time PCR, upper panel of FIG. 6B
Text: (§3) Moreover, as shown in the lower panel of FIG. 6B, as a result of analyzing the expression of MET and IGSF1 after transfecting miR-34a or miR-34c into human gastric cancer cell lines MKN45 and SNU638, it was observed that the expression of IGSF1 as a marker for the induction of HGF-independent MET phosphorylation and the expression of c-MET were inhibited by miR-34a or miR-34c.

gastric cancer cell line = assay: Cell invasion after miRNA or antagomir transfection, gastric cancer cells; type: cell-based, human; conditions: middle panel of FIG. 6D
Protocol: […] Plate inserts (BD Biosciences) of […] pore size were placed in a 24-well plate, and each 100 μl of matrigel (BD Biosciences) was seeded on each at a concentration of 200 μg/ml and incubated in a CO2 incubator for 30 minutes. […] 400 μl of growth media (RPMI1640+10% FBS) were seeded on the bottom plate and cultured in a CO2 incubator for 24 hours. After 24 hours, the insert plate was washed with PBS, and the remaining cells were wiped with a cotton swab and fixed in 10% formalin for 20 minutes. After washing with purified water, the cells were stained with 0.01% crystal violet solution for 20 minutes and washed with warm water, and then the number of migrated cells was counted. In the case of the migration assay, the same procedure as above was carried out without coating the insert plate. The number of cells migrated through the insert plate in the control and the gastric cancer and lung cancer cell lines transfected with MET or IGSF1 siRNA was counted and verified.

[5] = system: gastric cancer cell lines SNU638 and MKN45; assay: Cell migration after miRNA or antagomir transfection, gastric cancer cells; type: cell-based, human; conditions: for migration of cells: SNU638, lower panel of FIG. 6D; for cell migration: SNU638 and MKN45, upper panel of FIG. 6D
[6] = system: relevant signaling pathway; assay: Expression of the relevant signaling pathway after miRNA transfection; type: cell-based; conditions: human gastric cancer cell line; lower panel of FIG. 6C
[7] = system: human gastric cancer cell line SNU638; assay: Cell growth after miRNA transfection, trypan blue exclusion; type: cell-based; conditions: 300 nM, compared with the control group
Protocol: Human miRNA-34a (SEQ ID NO: 1; […]) or miRNA-34c (SEQ ID NO: 2; […]) was purchased from Thermo Fisher Scientific. 4×10^5 HGF-independent human gastric cancer SNU638 cells were seeded and transfected with 300 nM of miRNA-34a or miRNA-34c, and then the number of cells was counted using trypan blue exclusion method for 0, 1, 2 and 3 days.
4×10^5 HGF-independent human gastric cancer SNU638 cells or 3×10^5 MKN45 cells were transfected with 300 nM of miRNA-34a (SEQ ID NO: 1) or miRNA-34c (SEQ ID NO: 2), and then the number of cells was counted using trypan blue exclusion method for 0, 1, 2 and 3 days.

IGSF1 [8] = assay: IGSF1 expression after miR-34a/miR-34c or antagomir transfection, gastric cancer cells; type: cell-based, human
Text: as §3

MET [9] = assay: Luciferase 3'UTR reporter assay in human 293 cell line, MET; type: cell-based; conditions: wild-type vs mutated 3'UTR luciferase plasmids
MMP9 = MMP9 expression after miRNA transfection; type: cell-based, human; conditions: SNU638; lower panel of FIG. 6D
Text: Furthermore, as shown in the lower panel of FIG. 6D, the transfection of gastric cancer cell line SNU638 with mir-34a or mir-34c inhibited the migration of cells and decreased the expression of MMP9.

IGSF1 [10] = assay: IGSF1 expression after miRNA transfection, lung cancer cells; type: cell-based, human; conditions: lung cancer cell lines HCC827 and H1944
IGSF1 [11] = assay: Luciferase 3'UTR reporter assay in human 293 cell line, IGSF1; type: cell-based; conditions: wild-type vs mutated 3'UTR luciferase plasmids
[12] = system: human lung cancer cell lines HCC827 and HCC194; assay: Cell growth (cell counting) after shRNA, lung cancer cells; type: cell-based; conditions: number of cells at 24 hours and 48 hours, shRNA method
Text: The present inventors inhibited the expression of IGSF1 or the expression of MET by the shRNA method in human lung cancer cell lines HCC827 and HCC194 and then determined the inhibition of cell growth.

[13] = system: human gastric cancer cell lines SNU638 and MKN45; assay: Colony forming assay after inhibition of IGSF1 or MET; type: cell-based
Protocol: Moreover, the expression of IGSF1 or MET in human gastric cancer cell lines SNU638 and MKN45 was inhibited, and then the degree of the inhibition of cell growth was determined by colony forming assay.

[14] = system: human gastric cancer cell lines SNU638 and MKN45; assay: Cell growth (cell counting) after shRNA, gastric cancer cells; type: cell-based; conditions: number of cells counted for 3 days, shRNA method
Text: The present inventors inhibited the expression of IGSF1 or MET by the shRNA method in human gastric cancer cell lines SNU638 and MKN45 and then determined the inhibition of cell growth.

IGSF1 [15] = assay: Real-time PCR of IGSF1 expression after shRNA inhibition of MET; type: cell-based, human; conditions: RNA level, SNU638 and MKN45, inhibition of MET by shRNA method
Text: (§4) The present inventors inhibited the expression of IGSF1 or MET by the shRNA method in human gastric cancer cell lines SNU638 and MKN45 and then determined the changes in expression of each gene by real-time PCR.

IGSF1 [16] = assay: Western blot of IGSF1 expression after MET shRNA; type: cell-based, human; conditions: MET shRNA concentration-dependent manner, FIG. 2E
Protocol: (§5) To perform Western blot analysis, proteins isolated from the respective cells were separated by SDS-PAGE and transferred to membranes (PolyScreen membranes; New England Nuclear, Boston, Mass., USA). The proteins were incubated with various antibodies (anti-phospho MET, E-cadherin (Cell signaling Technology, Beverly, Mass., USA), anti-MET, anti-r-tubulin (Santa Cruz Biotechnology, Santa Cruz, Calif., USA), anti-IGSF1 (Abnova, Jhouzih, Taipei, Taiwan)) at 4° C. for 12 hours and then washed with 1× TBS-T buffer three times for 10 minutes. The proteins were incubated with appropriate anti-rabbit-HRP or anti-mouse-HRP secondary antibody at room temperature for 2 hours and washed with 1× TBS-T buffer three times for 10 minutes, and then the expression of the proteins was detected using ECL solution (GE Healthcare Bio-Sciences Corp.). […]
(§6) To analyze the changes in MET phosphorylation by inhibition of the expression of IGSF1 as a marker for the induction of HGF-independent MET phosphorylation in human gastric cancer cell line (AGS, MKN45, SNU638) and lung cancer cell line (HCC827), the present inventors inhibited the expression of IGSF1 or MET by the siRNA method and then determined the changes in phosphorylation of the MET protein by western blot analysis.

phosphorylation of MET = assay: Western blot of MET phosphorylation after inhibiting IGSF1 by siRNA/shRNA; type: cell-based, human; conditions: AGS, MKN45, SNU638 and HCC827, concentration-dependent manner, FIG. 2E
Protocol: as §5, §6

MET [17] = assay: Real-time PCR of MET expression after shRNA inhibition of IGSF1; type: cell-based, human; conditions: RNA level, SNU638 and MKN45, inhibition of IGSF1 by shRNA method
Text: as §4

[18] = MKN45 and SNU638, lower panel of FIG. 6B
[19] = cell line SNU638, real-time PCR, upper panel of FIG. 6B

Row | Compound | expression of pMET (pMET) | expression of c-MET (MET [4]) | expression of MET (MET [4]) | inhibition of the invasion of cells (gastric cancer cell line) | migration of cells [5] | cell migration [5] | expression of the relevant signaling pathway [6] | growth of cancer cells [7] | expression of IGSF1 (IGSF1 [8]; [18]) | expression of IGSF1 (IGSF1 [8]; [19]) | luciferase activity of MET (MET [9]) | expression of MMP9 (MMP9) | expression of IGSF1 (IGSF1 [10]) | luciferase activity of IGSF1 (IGSF1 [11]) | cell growth [12] | number of colonies [13] | cell growth [14] | also measured
1 | MET siRNA: siRNA against MET, SEQ ID NO: 5, 5′-AAAGATAAACCTCTCATAATG-3′ (AAAGAUAAACCUCUCAUAAUG; listed as RNA, chemistry not given here) |  |  |  |  |  |  |  |  |  |  |  |  |  |  |  |  |  | invasion [1]: inhibited; migration [2]: inhibited
2 | Cc1[nH]c(/C=C2\C(=O)Nc3ccc(S(=O)(=O)Cc4c(Cl)cccc4Cl)cc32)c(C)c1C(=O)N1CCC[C@@H]1CN1CCCC1 [PHA665752] |  |  |  |  |  |  |  |  |  |  |  |  |  |  |  |  |  | induction of apoptosis ([3]; trypan blue exclusion, treatment at each concentration): induction of apoptosis; response to the MET inhibitor ([3]; with inhibition of the expression of IGSF1): increased; expression of cleaved caspase 3 (cleaved caspase 3): increased
3 | miR-34c: Human miRNA-34c, SEQ ID NO: 2, AGGCAGUGUAGUUAGCUGAUUGC, purchased from Thermo Fisher Scientific (listed as RNA, chemistry not given here) | decreased | inhibited | decreased | about 50% | inhibited | inhibited | decreased | significantly inhibited | inhibited | decreased | inhibited only in the wild type | decreased | decreased | inhibited only in the wild type |  |  |  | 
4 | miR-34a: Human miRNA-34a, SEQ ID NO: 1, UGGCAGUGUCUUAGCUGGUUGU, purchased from Thermo Fisher Scientific (listed as RNA, chemistry not given here) | decreased | inhibited | decreased | about 50% | inhibited | inhibited | decreased | significantly inhibited | inhibited | decreased | inhibited only in the wild type | decreased | decreased | inhibited only in the wild type |  |  |  | 
5 | MET shRNA: shRNA against MET, SEQ ID NO: 7, 5′-GCCAGCCUGAAUGAUGACAUCUCUGUCAUCAUUCAGGCUGGCUU-3′ (siRNA; shRNA hairpin, further chemistry not given here) |  |  |  |  |  |  |  |  |  |  |  |  |  |  | inhibited | decreased | inhibited | expression of IGSF1 (IGSF1 [15]): decreased; expression of IGSF1 (IGSF1 [16]): decreased
6 | IGSF1 shRNA: shRNA against IGSF1, SEQ ID NO: 6, 5′-CAAAGAUGGAAGUGAAAUA UCUCUAUUUCACUUCCAUCUUUGUU-3′ (CAAAGAUGGAAGUGAAAUAUCUCUAUUUCACUUCCAUCUUUGUU; siRNA; shRNA hairpin, further chemistry not given here) |  |  |  |  |  |  |  |  |  |  |  |  |  |  | inhibited | decreased | inhibited | phosphorylation of MET (phosphorylation of MET): decreased; expression of MET (MET [17]): decreased
